According to patent US20180015100A1, “COMBINATION PRODUCTS FOR THE TREATMENT OF BACTERIAL INFECTIONS AND METHODS OF PRODUCING OR DOSING OF SAME” (priority 2016, published 2018):
Values after ≈ are worked out from the molar mass of the structure shown.

Key:
[1] = system: Escherichia coli isolates with an ESBL-phenotype; assay: In vitro MIC90 of a panel of approved antibiotics, US surveillance program; assay type: cell-based; details: for MIC90: Escherichia coli, E. coli (n = 124), ESBL-phenotype, read-out: MIC90
[2] = system: 385 Escherichia coli and 126 Klebsiella pneumoniae isolates; assay: MIC, MIC50 and MIC90 by reference broth microdilution against 511 UTI/bloodstream isolates (USA and Europe 2014-2015); assay type: cell-based; details: 511 isolates; for EUCAST % I: EUCAST 2016 criteria; for MIC90: read-out: MIC90
[3] = system: Citrobacter freundii isolates; assay: MIC of cephalosporins alone or with clavulanate/tazobactam; assay type: cell-based; details: clavulanate 2:1, tazobactam 4 μg/mL
[4] = system: Enterobacter aerogenes isolates; assay: as above; assay type: cell-based; details: Klebsiella aerogenes, clavulanate 2:1, tazobactam 4 μg/mL
[5] = system: Enterobacter cloacae isolates; assay: as above; assay type: cell-based; details: clavulanate 2:1, tazobactam 4 μg/mL
[6] = system: Escherichia coli isolates; assay: as above; assay type: cell-based; details: clavulanate 2:1, tazobactam 4 μg/mL
[7] = system: Klebsiella oxytoca isolates; assay: as above; assay type: cell-based; details: clavulanate 2:1, tazobactam 4 μg/mL
[8] = system: Klebsiella pneumoniae isolates; assay: as above; assay type: cell-based; details: clavulanate 2:1, tazobactam 4 μg/mL
[9] = system: beta-lactamase producing E. coli (CTX-M-55; CTX-M-15, TEM-OSBL); assay: microbe, parasite or virus in culture; assay type: cell-based; details: Escherichia coli
clinical = details: human, in vivo, po, 125 mg
Protocol: The twice daily divided dose of study drug was administered approximately 12 hours apart. All subjects randomized to placebo received placebo oral capsules that were identical to study drug capsules and given according to the same dosing schedule and same quantity of capsules as subjects randomized to receive ceftibuten and clavulanate concurrently. All SDs, as well as the first daily dose of the MD period on […] were given while the subject was fasted. […] In addition, blood samples for assessment of trough (pre-dose) concentrations were collected on day 7, day 8, day 9, and alternate days thereafter through study day 17. […] Peak concentration (Cmax), time at which Cmax was observed (Tmax), area under the concentration-time curve to infinity (AUCinf), percent coefficient of variation (% CV), elimination half-life (T1/2), apparent total clearance of the drug from plasma after oral administration (CL/F), and apparent volume of distribution during terminal phase after non-intravenous administration (Vz/F) were determined. […] Similar to above, six subjects were randomized to receive active drug and two were randomized to receive placebo. […] Safety, tolerability and PK were assessed as described above.

[10] = plasma; cited from earlier work

With `NCC[C@H](O)C(=O)N[C@@H]1C[C@H](N)[C@@H](O[C@H]2O[C@H](CN)[C@@H](O)[C@H](O)[C@H]2O)[C@H](O)[C@H]1O[C@H]1O[C@H](CO)[C@@H](O)[C@H](N)[C@H]1O` [Amikacin] the MIC90 [1] was 8 µg/mL (≈ 13.7 µM).
With `C[C@H]1[C@H](NC(=O)/C(=N\OC(C)(C)C(=O)O)c2csc(N)n2)C(=O)N1S(=O)(=O)O` [Aztreonam] the MIC90 [1] was > 16 µg/mL, the MIC50 [2] was > 16 µg/mL and the “EUCAST % I” value [2] was 13.9%. For the same compound, the MIC90 [2] was > 16 µg/mL.
In the case of `CC(C)(O/N=C(\C(=O)N[C@@H]1C(=O)N2C(C(=O)[O-])=C(C[n+]3ccccc3)CS[C@H]12)c1csc(N)n1)C(=O)O` [Ceftazidime], the MIC90 [1] is reported as > 32 µg/mL, the MIC50 [2] is reported as 16 µg/mL (≈ 29.3 µM) and the “EUCAST % I” value [2] is reported as 16.2%. The MIC90 [2] was > 32 µg/mL.
In the case of `CO/N=C(\C(=O)N[C@@H]1C(=O)N2C(C(=O)O)=C(CSc3nc(=O)c(=O)[nH]n3C)CS[C@H]12)c1csc(N)n1` [Ceftriaxone], the “MIC90 relative to CLSI/EUCAST breakpoint for susceptibility” value ([1]; E. coli isolates with ESBL-producing phenotype) is reported as “above the breakpoint for susceptibility”, the MIC90 [1] is reported as > 8 µg/mL and the MIC50 [2] is reported as > 8 µg/mL. For the same compound, the “EUCAST % I” value [2] was 1.2% and the MIC90 [2] was > 8 µg/mL.
`O=C(O)[C@H]1/C(=C/CO)O[C@@H]2CC(=O)N21` [Clavulanate, clavulanic acid] showed an MIC ([3]; ACFR1034 (CTX-M-15, TEM-OSBL)) of 32 µg/mL, an MIC ([3]; ACFR1035 (CTX-M-3, TEM-OSBL)) of 32 µg/mL and an MIC ([4]; AEAE1027 (CTX-M-14)) of 32 µg/mL. It also gave an MIC ([4]; AEAE1029 (CTX-M-15)) of 32 µg/mL, an MIC ([5]; AECL1065 (CTX-M-15)) of 64 µg/mL and an MIC ([5]; AECL1067 (CTX-M-3)) of 64 µg/mL. It also gave an MIC ([6]; AECO001 (no ESBL)) of 32 µg/mL, an MIC ([6]; AECO1078 (CTX-M-15)) of 32 µg/mL and an MIC ([6]; AECO1147 (CTX-M-15)) of 32 µg/mL. For the same compound, the MIC ([6]; AECO1157 (CTX-M-15, TEM-OSBL)) was 32 µg/mL, the MIC ([6]; AECO1159 (CTX-M-15)) was 32 µg/mL and the MIC ([6]; AECO1169 (CTX-M-1, TEM-OSBL)) was 32 µg/mL. The MIC ([6]; AECO1172 (CTX-M-14)) was 32 µg/mL, the MIC ([7]; AKOX1005 (SHV-2, TEM-1, DHA-1)) was 32 µg/mL and the MIC ([7]; AKOX1009 (CTX-M-15)) was 32 µg/mL. It also gave an MIC ([8]; AKPN1159 (SHV-12)) of 32 µg/mL, an MIC ([8]; AKPN1161 (SHV-7)) of 16 µg/mL and an MIC ([8]; AKPN1162 (CTX-M-15, SHV-12)) of 32 µg/mL. For the same compound, the MIC ([8]; AKPN1166 (CTX-M-14, SHV-12)) was 32 µg/mL, the MIC ([8]; AKPN1167 (SHV-2)) was 16 µg/mL and the MIC [9] was > 32 µg/mL. For the same compound, the Tmax (clinical; Tmax) was 60 min, the half-life (clinical; T½) was 46.5 min and the Elimination half-life [10] was “approximately 1 h”.
For `C[C@@H](O)[C@H]1C(=O)N2C(C(=O)O)=C(S[C@@H]3CN[C@H](CNS(N)(=O)=O)C3)[C@H](C)[C@H]12` [Doripenem], the MIC90 [1] was ≤ 0.06 µg/mL.
In the case of `C[C@@H](O)[C@H]1C(=O)N2C(C(=O)O)=C(SCCN=CN)C[C@H]12` [Imipenem], the MIC90 [1] is reported as 0.25 µg/mL (≈ 0.835 µM), the MIC50 [2] is reported as ≤ 0.12 µg/mL and the “EUCAST % I” value [2] is reported as 2.7%. For the same compound, the MIC90 [2] was 0.5 µg/mL (≈ 1.67 µM).
With `C[C@H]1COc2c(N3CCN(C)CC3)c(F)cc3c(=O)c(C(=O)O)cn1c23` [Levofloxacin] the MIC90 [1] was > 4 µg/mL.
